Converted amounts (≈) assume the structure as drawn.
Tests used:
Type in all cases: cell-based
[1] = test system: Escherichia coli ATCC 25922; assay: MIC, standard microdilution technique
How it was run: (§1)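 Antibacterial activity was determined by broth microdilution following the NCCLS approved standard M7-A5 (5th edition, 2000) for dilution susceptibility testing of aerobically growing bacteria.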

[2] = test system: Staphylococcus aureus 1086; assay: MIC, standard microdilution technique
How it was run: as §1

[3] = test system: Staphylococcus aureus 745; assay: MIC, standard microdilution technique
How it was run: as §1

[4] = test system: Staphylococcus aureus ATCC 29213; assay: MIC, standard microdilution technique
How it was run: as §1

[5] = test system: Streptococcus pneumoniae 12288; assay: MIC, standard microdilution technique
How it was run: as §1

[6] = test system: Streptococcus pneumoniae SL199T; assay: MIC, standard microdilution technique
How it was run: as §1

[7] = test system: Streptococcus pneumoniae l/l; assay: MIC, standard microdilution technique
How it was run: as §1

[8] = test system: Streptococcus pneumoniae ¼; assay: MIC, standard microdilution technique
How it was run: as §1

[9] = test system: Haemophilus influenzae 12214; assay: MIC, standard agar dilution method using HTM medium
How it was run: (§2)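 MICs were read following the NCCLS approved standard (M7-A5) for dilution susceptibility testing of aerobically growing bacteria. Compounds were tested against Haemophilus influenzae.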

[10] = test system: Haemophilus influenzae B1501; assay: as above
How it was run: as §2

[11] = test system: Haemophilus influenzae QK12/87; assay: as above
How it was run: as §2

[12] = test system: Haemophilus influenzae QK50; assay: as above
How it was run: as §2

| SMILES | minimum inhibitory concentration (MIC), Strain D [1] [µg/mL] | minimum inhibitory concentration (MIC), Strain B [2] | minimum inhibitory concentration (MIC), Strain C [3] [µg/mL] | minimum inhibitory concentration (MIC), Strain A [4] | minimum inhibitory concentration (MIC), Strain H [5] [µg/mL] | minimum inhibitory concentration (MIC), Strain G [6] [µg/mL] | minimum inhibitory concentration (MIC), Strain E [7] | minimum inhibitory concentration (MIC), Strain F [8] | minimum inhibitory concentration (MIC), Strain K [9] [µg/mL] | minimum inhibitory concentration (MIC), Strain M [10] [µg/mL] | minimum inhibitory concentration (MIC), Strain I [11] [µg/mL] | minimum inhibitory concentration (MIC), Strain L [12] [µg/mL] | further results |
| --- | --- | --- | --- | --- | --- | --- | --- | --- | --- | --- | --- | --- | --- |
| CC[C@H]1OC(=O)[C@H](C)C(=O)[C@H](C)[C@@H](O[C@@H]2O[C@H](C)C[C@H](N(C)C)[C@H]2O)[C@](C)(OC)C[C@@H](C)C(=O)[C@H](C)[C@H]2[C@@H](SCCN(C)CCn3cnc4c(N)ncnc43)C(=O)O[C@@]21C [Example 9] | >32 | 1 µg/mL (≈ 1.16 µM) | >32 | 1 µg/mL (≈ 1.16 µM) | 32 (≈ 37.1 µM) | 8 (≈ 9.28 µM) | <=0.06 μg/ml | 0.5 µg/mL (≈ 0.58 µM) | 16 (≈ 18.6 µM) | 4 (≈ 4.64 µM) | 8 (≈ 9.28 µM) | 8 (≈ 9.28 µM) | – |
| CC[C@H]1OC(=O)[C@H](C)C(=O)[C@H](C)[C@@H](O[C@@H]2O[C@H](C)C[C@H](N(C)C)[C@H]2O)[C@](C)(OC)C[C@@H](C)C(=O)[C@H](C)[C@H]2[C@@H](SCC(=O)Nc3cc(C)on3)C(=O)O[C@@]21C [Example 33] | >32 | 0.5 µg/mL (≈ 0.639 µM) | >32 | 0.5 µg/mL (≈ 0.639 µM) | >32 | 32 (≈ 40.9 µM) | <=0.06 μg/ml | >32 µg/mL | 8 (≈ 10.2 µM) | 8 (≈ 10.2 µM) | 16 (≈ 20.5 µM) | 8 (≈ 10.2 µM) | – |
| CC[C@H]1OC(=O)[C@@](C)(F)C(=O)[C@H](C)[C@@H](O[C@@H]2O[C@H](C)C[C@H](N(C)C)[C@H]2O)[C@](C)(OC)C[C@@H](C)C(=O)[C@H](C)[C@H]2[C@@H](SCCOCn3cc(C)c(=O)[nH]c3=O)C(=O)O[C@@]21C (single isomer, unassigned) [Example 14, (3R or S) 3aR, 4R or S, 6R, 8R, 9R, 10R, 12S, 15R, 15aS)-15-Ethyl-12-fluorooctahydro-8-methoxy-4,6,8,10,12,15a-hexamethyl-3-[[2-[[5-methyl-2,4-(1H,3H)-pyrimidinedione-1-yl]methoxy]ethyl]thio]-9-[[3,4,6-trideoxy-3-(dimethylamino)-β-D-xylo-hexopyranosyl]oxy]-2H-furo [2,3-c] oxacyclotetradecin-2,5,11,13 (3H,6H,12H)-tetrone] | >32 | <=0.06 μg/ml | >32 | <=0.06 μg/ml | 16 (≈ 19 µM) | 1 (≈ 1.18 µM) | <=0.06 μg/ml | 2 µg/mL (≈ 2.37 µM) | 2 (≈ 2.37 µM) | 2 (≈ 2.37 µM) | 2 (≈ 2.37 µM) | 2 (≈ 2.37 µM) | – |
| CC[C@H]1OC(=O)[C@H](C)C(=O)[C@H](C)[C@@H](O[C@@H]2O[C@H](C)C[C@H](N(C)C)[C@H]2O)[C@](C)(OC)C[C@@H](C)C(=O)[C@H](C)[C@H]2[C@@H](SCC(=O)NCc3nc4ccccc4s3)C(=O)O[C@@]21C [Example 34] | >32 | 0.5 µg/mL (≈ 0.59 µM) | >32 | 0.25 µg/mL (≈ 0.295 µM) | >32 | >32 | <=0.06 μg/ml | 8 µg/mL (≈ 9.43 µM) | >32 | 32 (≈ 37.7 µM) | 32 (≈ 37.7 µM) | >32 | – |
| CC[C@H]1OC(=O)[C@H](C)C(=O)[C@H](C)[C@@H](O[C@@H]2O[C@H](C)C[C@H](N(C)C)[C@H]2O)[C@](C)(OC)C[C@@H](C)C(=O)[C@H](C)[C@H]2[C@@H](SCCNC(=O)c3ccc4ncccc4c3)C(=O)O[C@@]21C (single isomer, unassigned) [Example 47] | >32 | <=0.06 μg/ml | >32 | 0.125 µg/mL (≈ 0.148 µM) | >32 | 8 (≈ 9.5 µM) | <=0.06 μg/ml | <=0.06 μg/ml | 8 (≈ 9.5 µM) | 2 (≈ 2.38 µM) | 4 (≈ 4.75 µM) | 4 (≈ 4.75 µM) | – |
| CC[C@H]1OC(=O)[C@H](C)C(=O)[C@H](C)[C@@H](O[C@@H]2O[C@H](C)C[C@H](N(C)C)[C@H]2O)[C@](C)(OC)C[C@@H](C)C(=O)[C@H](C)[C@H]2[C@@H](SCCNc3ccc(C#N)cn3)C(=O)O[C@@]21C (single isomer, unassigned) [Example 46, (3R or S, 3aR, 4R or S, 6R, 8R, 9R, 10R, 12R, 15R, 15aS) -3-[[2-[(5-Cyanopyridin-2-yl)amino]ethyl]thio]-15-ethyloctahydro-8-methoxy-4,6,8,10,12,15a-hexamethyl-9-[[-3,4,6-trideoxy-3-(dimethylamino)-β-D-xylo-hexopyranosyl]oxy]-2H-furo [2,3-c] oxacyclotetradecin-2,5,11,13 (3H,6H,12H)-tetrone] | – | – | – | – | – | – | – | – | – | – | – | – | MIC ([1]; ATCC25922, read-out: minimum inhibitory concentration (MIC), Strain D): > 32 µg/mL; MIC ([2]; read-out: minimum inhibitory concentration (MIC), Strain B): ≤ 0.06 µg/mL; MIC ([3]; read-out: minimum inhibitory concentration (MIC), Strain C): > 32 µg/mL; MIC ([4]; ATCC29213, read-out: minimum inhibitory concentration (MIC), Strain A): ≤ 0.06 µg/mL; MIC ([5]; read-out: minimum inhibitory concentration (MIC), Strain H): 32 µg/mL (≈ 40.6 µM); MIC ([6]; read-out: minimum inhibitory concentration (MIC), Strain G): 4 µg/mL (≈ 5.07 µM); MIC ([7]; read-out: minimum inhibitory concentration (MIC), Strain E): ≤ 0.06 µg/mL; MIC ([8]; read-out: minimum inhibitory concentration (MIC), Strain F): ≤ 0.06 µg/mL; MIC ([9]; read-out: minimum inhibitory concentration (MIC), Strain K): 2 µg/mL (≈ 2.53 µM); MIC ([10]; read-out: minimum inhibitory concentration (MIC), Strain M): 1 µg/mL (≈ 1.27 µM); MIC ([11]; read-out: minimum inhibitory concentration (MIC), Strain I): 1 µg/mL (≈ 1.27 µM); MIC ([12]; read-out: minimum inhibitory concentration (MIC), Strain L): 4 µg/mL (≈ 5.07 µM) |

The next lines start with results.

| minimum inhibitory concentration (MIC), Strain D [1] [µg/mL] | minimum inhibitory concentration (MIC), Strain B [2] | minimum inhibitory concentration (MIC), Strain C [3] [µg/mL] | minimum inhibitory concentration (MIC), Strain A [4] | minimum inhibitory concentration (MIC), Strain H [5] [µg/mL] | minimum inhibitory concentration (MIC), Strain G [6] [µg/mL] | minimum inhibitory concentration (MIC), Strain E [7] | minimum inhibitory concentration (MIC), Strain F [8] | minimum inhibitory concentration (MIC), Strain K [9] [µg/mL] | minimum inhibitory concentration (MIC), Strain M [10] [µg/mL] | minimum inhibitory concentration (MIC), Strain I [11] [µg/mL] | minimum inhibitory concentration (MIC), Strain L [12] [µg/mL] | SMILES | further results |
| --- | --- | --- | --- | --- | --- | --- | --- | --- | --- | --- | --- | --- | --- |
| >32 | 1 µg/mL (≈ 1.09 µM) | >32 | 1 µg/mL (≈ 1.09 µM) | >32 | 16 (≈ 17.4 µM) | <=0.06 μg/ml | 32 µg/mL (≈ 34.8 µM) | >32 | >32 | 32 (≈ 34.8 µM) | 32 (≈ 34.8 µM) | CC[C@H]1OC(=O)[C@H](C)C(=O)[C@H](C)[C@@H](O[C@@H]2O[C@H](C)C[C@H](N(C)C)[C@H]2O)[C@](C)(OC)C[C@@H](C)C(=O)[C@H](C)[C@H]2[C@@H](SCCNS(=O)(=O)c3cccc4c(N(C)C)cccc34)C(=O)O[C@@]21C [Example 28] | – |
| >32 | 2 µg/mL (≈ 2.34 µM) | >32 | 2 µg/mL (≈ 2.34 µM) | 32 (≈ 37.5 µM) | 1 (≈ 1.17 µM) | <=0.06 μg/ml | 0.125 µg/mL (≈ 0.147 µM) | 8 (≈ 9.38 µM) | 4 (≈ 4.69 µM) | 4 (≈ 4.69 µM) | 8 (≈ 9.38 µM) | CC[C@H]1OC(=O)[C@@](C)(F)C(=O)[C@H](C)[C@@H](O[C@@H]2O[C@H](C)C[C@H](N(C)C)[C@H]2O)[C@](C)(OC)C[C@@H](C)C(=O)[C@H](C)[C@H]2[C@@H]([S+]([O-])CCCn3cnc4c(N)ncnc43)C(=O)O[C@@]21C (single isomer, unassigned) [Example 57] | – |
